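Cultured in 96-well plates, cells were exposed to test compound for 48 hours across five concentrations. TGI marks complete inhibition of growth.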
What was measured:
Assay in all cases: NCI anticancer screen, dose series, 48 h
[1] = tested on: 786-0 renal
[2] = tested on: A498 renal
[3] = tested on: A549 NSCLC
[4] = tested on: ACHN renal
[5] = tested on: BT-549 breast
[6] = tested on: CAKI-1 renal
[7] = tested on: CCRF-CEM leukemia
[8] = tested on: COLO 205 colon
[9] = tested on: DU-145 prostate
[10] = tested on: EKVX NSCLC
[11] = tested on: HCC-2998 colon
[12] = tested on: HCT-116 colon
[13] = tested on: HCT-15 colon
[14] = tested on: HL-60(TB) leukemia
[15] = tested on: HOP-92 NSCLC
[16] = tested on: HS 578T breast
[17] = tested on: HT29 colon
[18] = tested on: IGROV1 ovarian
[19] = tested on: K-562 leukemia
[20] = tested on: KM12 colon
[21] = tested on: LOX IMVI melanoma
[22] = tested on: M14 melanoma
[23] = tested on: MALME-3M melanoma
[24] = tested on: MCF7 breast
[25] = tested on: MDA-MB-231 breast
[26] = tested on: MDA-MB-435
[27] = tested on: MDA-N
[28] = tested on: MOLT-4 leukemia
[29] = tested on: NCI-H226 lung
[30] = tested on: NCI-H23 lung
[31] = tested on: NCI-H460 lung
[32] = tested on: NCI/ADR-RES ovarian
[33] = tested on: OVCAR-3 ovarian
[34] = tested on: OVCAR-5 ovarian
[35] = tested on: OVCAR-8 ovarian
[36] = tested on: PC-3 prostate
[37] = tested on: RXF 393 renal
[38] = tested on: SF-268 CNS
[39] = tested on: SF-295 CNS
[40] = tested on: SF-539 CNS
[41] = tested on: SK-MEL-2 melanoma
[42] = tested on: SK-MEL-28 melanoma
[43] = tested on: SK-MEL-5 melanoma
[44] = tested on: SK-OV-3 ovarian
[45] = tested on: SN12C renal
[46] = tested on: SNB-19 CNS
[47] = tested on: SNB-75 CNS
[48] = tested on: SW-620 colon
[49] = tested on: T-47D breast
[50] = tested on: TK-10 renal
[51] = tested on: U251 CNS
[52] = tested on: UACC-257 melanoma
[53] = tested on: UACC-62 melanoma
[54] = tested on: UO-31 renal
[55] = tested on: HOP-62 NSCLC
[56] = tested on: NCI-H522 lung
[57] = tested on: OVCAR-4 ovarian
[58] = tested on: RPMI-8226 leukemia

Cn1c(COC(=O)Nc2ccccc2)c(COC(=O)Nc2ccccc2)c2ccc3cc(Cl)c(Cl)cc3c21
TGI [1]: 12.6 µM | TGI [2]: 4.25 µM | TGI [3]: > 75 µM | TGI [4]: 29 µM | TGI [5]: 12.6 µM | TGI [6]: 3.09 µM | TGI [7]: > 75 µM | TGI [8]: 14.5 µM | TGI [9]: 31 µM | TGI [10]: 44.5 µM | TGI [11]: 15.8 µM | TGI [12]: 38.5 µM | TGI [13]: 15 µM | TGI [14]: 10.4 µM | TGI [15]: 7.54 µM | TGI [16]: 29 µM | TGI [17]: 23.6 µM | TGI [18]: 23.5 µM | TGI [19]: > 75 µM | TGI [20]: 23.4 µM | TGI [21]: 13.5 µM | TGI [22]: 19.6 µM | TGI [23]: 6.59 µM | TGI [24]: 10.6 µM | TGI [25]: 12.7 µM | TGI [26]: 29.1 µM | TGI [27]: 18.3 µM | TGI [28]: > 75 µM | TGI [29]: 54.7 µM | TGI [30]: > 75 µM | TGI [31]: 22.9 µM | TGI [32]: 66.7 µM | TGI [33]: 21.6 µM | TGI [34]: 24.1 µM | TGI [35]: 7.5 µM | TGI [36]: 20.4 µM | TGI [37]: 39.5 µM | TGI [38]: 21.9 µM | TGI [39]: 64.2 µM | TGI [40]: 44.6 µM | TGI [41]: 17.9 µM | TGI [42]: 41.4 µM | TGI [43]: 16.1 µM | TGI [44]: > 75 µM | TGI [45]: 16.4 µM | TGI [46]: > 75 µM | TGI [47]: 19.2 µM | TGI [48]: > 75 µM | TGI [49]: 5.41 µM | TGI [50]: 22.7 µM | TGI [51]: 5.01 µM | TGI [52]: 21.6 µM | TGI [53]: 40.7 µM | TGI [54]: 26.5 µM

Cc1cc(S(=O)(=O)Nc2nc3cc(-c4ccc(Cl)cc4)sc3c(=O)n2N)c(S)cc1Cl
TGI [1]: > 100 µM | TGI [3]: > 100 µM | TGI [4]: 98.7 µM | TGI [5]: > 100 µM | TGI [6]: > 100 µM | TGI [7]: 59 µM | TGI [8]: 56.1 µM | TGI [9]: > 100 µM | TGI [10]: > 100 µM | TGI [11]: > 100 µM | TGI [12]: > 100 µM | TGI [13]: > 100 µM | TGI [55]: > 100 µM | TGI [15]: > 100 µM | TGI [16]: > 100 µM | TGI [17]: > 100 µM | TGI [18]: > 100 µM | TGI [19]: > 100 µM | TGI [20]: > 100 µM | TGI [21]: > 100 µM | TGI [22]: > 100 µM | TGI [23]: > 100 µM | TGI [24]: > 100 µM | TGI [25]: > 100 µM | TGI [26]: > 100 µM | TGI [27]: > 100 µM | TGI [28]: 55.3 µM | TGI [30]: > 100 µM | TGI [31]: > 100 µM | TGI [56]: > 100 µM | TGI [32]: > 100 µM | TGI [33]: > 100 µM | TGI [57]: > 100 µM | TGI [34]: > 100 µM | TGI [35]: > 100 µM | TGI [36]: > 100 µM | TGI [58]: > 100 µM | TGI [37]: > 100 µM | TGI [38]: > 100 µM | TGI [39]: > 100 µM | TGI [41]: > 100 µM | TGI [42]: > 100 µM | TGI [43]: > 100 µM | TGI [44]: > 100 µM | TGI [45]: > 100 µM | TGI [46]: > 100 µM | TGI [47]: > 100 µM | TGI [48]: > 100 µM | TGI [49]: > 100 µM | TGI [50]: > 100 µM | TGI [51]: > 100 µM | TGI [52]: > 100 µM | TGI [53]: > 100 µM | TGI [54]: > 100 µM

Source: PubChem BioAssay (NCI)
